What was measured:
human hepatocytes = assay: Biotransformation studies in human cryopreserved hepatocytes; format: in vitro ADME; details: for Bioconversion to Apo805 in human hepatocytes: in 3 h, 100 μM, cryopreserved human hepatocytes
Protocol: LiverPool® cryopreserved human hepatocytes (pooled from 10 male donors) was obtained from Celsis In Vitro Technologies. The hepatocytes were stored in liquid nitrogen until used. Just before the assay, the hepatocytes were quickly thawed at 37° C. and centrifuged at 100×g for 10 min. The media was removed and cells were re-suspended in PBS at a density of 4×10^6 cells/mL.
The compound of Formula I (100 μM) was incubated with 0.1×10^6 hepatocytes in 50 μL volume. […] The “time 0” sample was generated by adding TCA before the test compound. After brief vortexing and 10-min incubation on ice, samples were centrifuged (16,000×g, 10 min) and the supernatants were analyzed by HPLC with UV detection.
HPLC analysis of pro-drugs in SGF, SIF, plasma and hepatocytes samples: HPLC analysis was done using an Agilent 1100 series HPLC system consisting of a programmable multi-channel pump, auto-injector, vacuum degasser and HP detector controlled by Agilent HPLC218 Chem Station Rev.A.09.03 software for data acquisition and analysis. A gradient method was used for the determination of all pro-drugs and their hydrolysis products including Apo805 on an Agilent Eclipse XDB, C18 column (part #963967-902, 150×4.6 mm, 3.5 μm) with the following chromatographic conditions: • Temperature: Ambient • Mobile phase: A=Aqueous phase: 10 mM Tris-HCl, 2 mM EDTA, pH 7.4 • B=Organic phase: Acetonitrile • Gradient method: Time: 0 min 5% B, 25 min 50% B, 35 min 80% B, 45 min 5% B, 50 min 5% B. • Mobile phase flow rate: 1.0 mL/min • Injection volume: 50 μL • Data acquisition time: 30 min • Detection wavelength: 280 nm; 4 nm bandwidth, ref. 360 nm, 4 nm bandwidth
The chromatograms at λ=280 nm were analyzed. Peak area (mAU*s) was used for quantitation of pro-drugs, intermediates and H-D-Glu(D-Trp-OH)—OH (Apo805).

[1] = Distribution coefficient determination, D7.4 (1-octanol / MOPS buffer pH 7.4); format: physicochemical
Protocol: MOPS buffer (50 mM, pH=7.4) and 1-octanol were used as the aqueous phase and the organic phase, respectively. The MOPS buffer and 1-octanol were mixed, and pre-saturated with each other prior to use.
In a typical experiment, an aqueous solution of Apo848 hydrochloride salt (H-D-Glu(D-Trp-O-isoamyl)-O-isoamy HCl) was prepared by weighing out 2 mg of the compound into a 5-mL volumetric flask, followed by addition of MOPS buffer (50 mM, pH=7.4) to volume. The resulting mixture was sonicated and vortexed to ensure complete dissolution. The resulting solution was analyzed by HPLC (Column: XTerra MS C18, […], 4.6×250 mm; Mobile phase: A=4 mM Tris, 2 mM EDTA, pH 7.4 aqueous, B=acetonitrile; Gradient method: time in minutes—B in %:0-5, 15-55, 25-55, 25.05-5, 30-5; Flow rate: 1 mL/min; Injection volume=2 μL; detector wavelength: 282 nm) to obtain the peak height (Haqu^l).
One mL of this aqueous solution was pipetted out into another 10-mL test-tube and mixed with 1 mL of 1-octanol. The mixture was vortexed for 1 hour, then centrifuged at 4000 rpm for 15 minutes. The two phases were separated. Both the aqueous phase and the organic phase were analyzed by HPLC to obtain the peak heights, Haqu^F and Horg^F. The distribution coefficient, D7.4, was calculated using one or both the following equations: D7.4=(Haqu^l−Haqu^F)/Haqu^F, or D7.4=Horg^F/Haqu^F.

[2] = Pharmacokinetic studies in rats (oral bioavailability); format: in vivo, male Sprague-Dawley rats
Protocol: Groups of five male Sprague-Dawley rats weighing 250 to 300 g were utilized per dosing group. One day prior to dosing, venous and arterial catheters (made of 20 cm long polyurethane coiled tubing, and filled with 100 units/mL heparinized saline) were implanted into the jugular vein and carotid artery of each rat. Rats were fasted overnight prior to oral dosing and fed approximately 2 hours post-dosing. All dosing and blood sampling was performed on fully conscious rats. Tested compounds were administered either by oral gavage as solutions in water, or by intravenous injection (Apo805K1 only) as solution in 0.9% sodium chloride, final pH 7.0, at doses equivalent to 5 mg/kg (per Apo805 content). Blood (0.3 mL) was sampled from each animal from the carotid artery for up to 30 hours post-dosing, each sampling followed by an equivalent naive-blood replacement. The blood sample was immediately centrifuged (4300×g for 5 minutes at 4° C.), and frozen at −80° C. until LC/MS/MS analysis.
Metanol (200 μL) was added to plasma samples (50 μL) to precipitate plasma proteins. After brief vortexing and centrifugation, the supernatant (200 uL) was removed and dried at 40° C. under a stream if nitrogen. The sample was reconstituted in water (300 μL) and 25 μL was injected for analysis.
A Sciex API 365 LC/MS/MS spectrophotometer equipped with Ionics EP10+ and HSID, was used. A chiral column (Supelco-Astec CHIROBIOTIC™ TAG), 100×2.1 mm, 5 μm was used at ambient temperature. The mobile phase consisted of 0.1% formic acid in water (A) and 0.1% formic acid in acetonitrile (B) in a ratio of 88:12(A:B; v/v) and the flow rate was 0.6 mL/min. Positive ion electrospray ionization (ESI+) in MRM mode was used for analysis. Samples were analysed for the concentration of Apo805.
Absolute oral bioavailability of pro-drugs Apo848, a compound of Formula IA wherein G=T=isoamyl) was compared to that of Apo805K1 (potassium salt of H-D-Glu(D-Trp-OH)—OH) in male Sprague-Dawley rats. Adult animals, five per group, were dosed orally with 5 mg/kg Apo805K1, Apo848, or Apo838 and intravenously with 5 mg/kg Apo805K1.
Non-compartmental analysis was performed using WinNonlin 5.2 software, on individual animal data. Bioavailability was calculated as a ratio of AUCINF—D after oral dosing of test compound to AUCINF—D after IV dosing of Apo805K1.

[3] = Conversion of prodrug to Apo805 in rat blood; format: in vitro ADME
[4] = Caco-2 cell permeability evaluation; format: in vitro ADME; details: human; caco-2, 50 μM, HBSS pH 7.4, 37° C.; read-out: apparent permeability (Papp)
Protocol: Human intestinal absorbtion potential of a compound of Formula I was estimated in caco-2 cells permeability assay.
Caco-2 cells obtained originally from ATCC were seeded onto 0.9-cm^2 PET filter (Becton Dickinson) at a density of 90000 cells/insert. Culture conditions were maintained for 21-28 days in 20% fetal bovine serum containing eagle's minimum essential medium enriched with non-essential amino acids. Integrity of the cell monolayers was evaluated via measurement of Lucifer Yellow paracellular apparent permeability coefficient (Papp).
Prior to the addition of a test compound, growth medium was removed and monolayer was rinsed twice with Hank's balanced salt solution (HBSS) at 37° C. The filter inserts containing the cell monolayers were transferred to a separate 12-well cell culture plate containing HBSS or solution of the test compound in the bottom chamber. […] For every experiment, the test compound solution was added to the top (apical-to-basolateral transport, A>B) or bottom (basolateral-to-apical transport, B>A) chamber and its appearance in the opposite chamber over time was monitored. […] Samples were analyzed by LC-MS/MS. In case of prodrugs which undergo partial hydrolysis during the experiment, the samples were analyzed for the concentration of the prodrug and all hydrolysis products. […]

## COC(=O)[C@@H](Cc1c[nH]c2ccccc12)NC(=O)CC[C@@H](N)C(=O)OCc1ccccc1 [Apo804, H-D-Glu(D-Trp-OMe)-O—CH2Ph]
Human hepatocytes
  Bioconversion to Apo805 in human hepatocytes: 30%
Human hepatocytes; over a period of 4 hours
  Apo805 formed in human cryopreserved hepatocyte: 31%
[1]; more lipophilic than Apo805
  log D7.4 compared with Apo805: higher

## N[C@H](CCC(=O)N[C@H](Cc1c[nH]c2ccccc12)C(=O)O)C(=O)O [Apo805, D-gamma-glutamyl-D-tryptophan]
[1]; pH 7.4, 1-octanol/MOPS buffer
  Log D7.4: −3.22

## N[C@H](CCC(=O)N[C@H](Cc1c[nH]c2ccccc12)C(=O)[O-])C(=O)[O-].[H+].[K+] [Apo805K1, potassium salt of H-D-Glu(D-Trp-OH)—OH, reference compound]
[2]; rats, oral 5 mg/kg
  Absolute oral bioavailability (AUC oral / AUC intravenous Apo805K1; Apo805 measured in plasma): 12%

## COC(=O)[C@H](N)CCC(=O)N[C@H](Cc1c[nH]c2ccccc12)C(=O)OC [Apo840, H-D-Glu(D-Trp-O—Me)—O—Me, reference compound]
Human hepatocytes
  Bioconversion to Apo805 in human hepatocytes: 30% in 3 h
[1]; pH 7.4, 1-octanol/MOPS buffer
  Log D7.4: 0.57

## CC(C)CCOC(=O)[C@H](N)CCC(=O)N[C@H](Cc1c[nH]c2ccccc12)C(=O)OCCC(C)C.Cl [Apo848, 3-methylbutyl (2R)-2-amino-5-{[(2R)-3-(1H-indol-3-yl)-1-(3-methylbutoxy)-1-oxopropan-2-yl]amino}-5-oxopentanoate hydrochloride]
[3]
  conversion to Apo805 in rat blood: instantaneously converted
[1]; diisoamyl ester versus parent drug
  improvement of the log D value of H-D-Glu(D-Trp-OH)—OH: more than 10^5 fold
[1]; pH 7.4, 1-octanol/MOPS buffer
  Log D7.4: 2.1
  distribution coefficient D7.4: 127
[1]; pH 7.4, 1-octanol/MOPS buffer, read-out: Log D7.4
  logD: 2.1
[2]; male, Sprague-Dawley, rat, in vivo, 5 mg/kg
  Absolute oral bioavailability (AUC oral / AUC intravenous Apo805K1; Apo805 measured in plasma): 48%
[2]; rat, in vivo, po
  oral bioavailability compared with Apo805: enhanced
  oral exposure compared with H-D-Glu(D-Trp-OH)—OH: improved
[4]
  Papp at 120 min, 50 μM: 28.7 nm/s

## COC(=O)[C@@H](Cc1c[nH]c2ccccc12)NC(=O)CC[C@@H](N)C(=O)O [H-D-Glu(D-Trp-OMe)-OH, reference compound]
[1]; pH 7.4, 1-octanol/MOPS buffer
  Log D7.4: −0.89

Reference: US20150011484A1, “PRODRUGS OF D-GAMMA-GLUTAMYL-D-TRYPTOPHAN AND D-GAMMA-GLUTAMYL-L-TRYPTOPHAN” (APOTEX TECHNOLOGIES, INC., priority 2011, published 2015)
